Reference: ChEMBL document CHEMBL1201862, “PubChem BioAssay data set” (2004)
One block for each molecule: values may come before it. Active and inactive are the calls of the source.

Legend:
[1] = biological target: Glycogen synthase kinase-3 alpha (Homo sapiens, UniProt P49840); experiment: Inhibition of Human GSK-3 alpha Activity Measured in Biochemical System Using Microfluidics - 2063-06_Inhibitor_Dose_DryPowder_Activity_Set2. [Related pubchem assays (depositor defined):AID2709]
[2] = biological target: Glycogen synthase kinase-3 beta (Homo sapiens, UniProt P49841); experiment: Inhibition of Human GSK-3 beta Activity Measured in Biochemical System Using Microfluidics - 2063-05_Inhibitor_Dose_DryPowder_Activity_Set2. [Related pubchem assays (depositor defined):AID2709]
Chain of Glycogen synthase kinase-3 beta (P49841 whole entry): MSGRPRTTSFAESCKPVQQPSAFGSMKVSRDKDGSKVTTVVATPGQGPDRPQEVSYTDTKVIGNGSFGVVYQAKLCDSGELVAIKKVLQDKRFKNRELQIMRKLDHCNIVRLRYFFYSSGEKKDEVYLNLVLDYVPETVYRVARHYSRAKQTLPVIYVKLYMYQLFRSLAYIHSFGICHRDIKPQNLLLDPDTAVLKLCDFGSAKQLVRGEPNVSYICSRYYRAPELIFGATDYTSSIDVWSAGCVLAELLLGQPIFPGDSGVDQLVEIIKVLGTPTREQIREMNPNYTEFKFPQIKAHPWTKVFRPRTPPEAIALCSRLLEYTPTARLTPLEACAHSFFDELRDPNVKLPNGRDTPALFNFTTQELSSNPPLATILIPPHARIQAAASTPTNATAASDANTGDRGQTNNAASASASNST

[3] = biological target: T1, Cyclin-dependent kinase 5/CDK5 activator 1 (Homo sapiens, UniProt Q00535); experiment: CDK5/p35 kinase inhibitors, dose response, biochemical, cherry-picked samples, set 2 (AID 504545)
T1 sequence (Q00535 whole entry): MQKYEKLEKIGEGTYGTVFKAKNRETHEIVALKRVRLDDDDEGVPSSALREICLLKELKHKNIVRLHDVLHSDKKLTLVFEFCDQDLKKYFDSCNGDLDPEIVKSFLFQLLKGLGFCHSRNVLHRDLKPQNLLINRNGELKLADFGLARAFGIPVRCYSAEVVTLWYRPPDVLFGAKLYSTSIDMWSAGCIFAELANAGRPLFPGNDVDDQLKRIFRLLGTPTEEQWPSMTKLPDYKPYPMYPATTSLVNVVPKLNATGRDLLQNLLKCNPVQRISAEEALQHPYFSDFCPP
T1 sequence (Q15078 whole entry, further chain): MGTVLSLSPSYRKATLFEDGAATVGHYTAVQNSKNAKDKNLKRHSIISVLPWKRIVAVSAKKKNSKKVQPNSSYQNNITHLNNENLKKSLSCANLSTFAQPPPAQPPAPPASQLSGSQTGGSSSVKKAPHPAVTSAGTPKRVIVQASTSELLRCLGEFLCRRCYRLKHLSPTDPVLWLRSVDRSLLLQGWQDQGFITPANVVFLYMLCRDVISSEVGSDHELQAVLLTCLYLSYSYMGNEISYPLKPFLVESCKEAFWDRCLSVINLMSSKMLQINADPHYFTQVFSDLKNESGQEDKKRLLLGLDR

[4] = biological target: T1, Cyclin-dependent kinase 5/CDK5 activator 1; experiment: CDK5-p25 kinase inhibitors, specificity check, dose response, selectivity assay for GSK-3 alpha inhibitor project, biochemical, microfluidic mobility shift, dry powder (AID 588430)
[5] = biological target: Phospholipase D2 (Homo sapiens, UniProt O14939); experiment: PLD2 inhibitor potency in cells, dose response (AID 602147); type: functional;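 also: cellular assay in HEK293 cells overexpressing GFP-tagged PLD2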
Chain of Phospholipase D2 (O14939 whole entry): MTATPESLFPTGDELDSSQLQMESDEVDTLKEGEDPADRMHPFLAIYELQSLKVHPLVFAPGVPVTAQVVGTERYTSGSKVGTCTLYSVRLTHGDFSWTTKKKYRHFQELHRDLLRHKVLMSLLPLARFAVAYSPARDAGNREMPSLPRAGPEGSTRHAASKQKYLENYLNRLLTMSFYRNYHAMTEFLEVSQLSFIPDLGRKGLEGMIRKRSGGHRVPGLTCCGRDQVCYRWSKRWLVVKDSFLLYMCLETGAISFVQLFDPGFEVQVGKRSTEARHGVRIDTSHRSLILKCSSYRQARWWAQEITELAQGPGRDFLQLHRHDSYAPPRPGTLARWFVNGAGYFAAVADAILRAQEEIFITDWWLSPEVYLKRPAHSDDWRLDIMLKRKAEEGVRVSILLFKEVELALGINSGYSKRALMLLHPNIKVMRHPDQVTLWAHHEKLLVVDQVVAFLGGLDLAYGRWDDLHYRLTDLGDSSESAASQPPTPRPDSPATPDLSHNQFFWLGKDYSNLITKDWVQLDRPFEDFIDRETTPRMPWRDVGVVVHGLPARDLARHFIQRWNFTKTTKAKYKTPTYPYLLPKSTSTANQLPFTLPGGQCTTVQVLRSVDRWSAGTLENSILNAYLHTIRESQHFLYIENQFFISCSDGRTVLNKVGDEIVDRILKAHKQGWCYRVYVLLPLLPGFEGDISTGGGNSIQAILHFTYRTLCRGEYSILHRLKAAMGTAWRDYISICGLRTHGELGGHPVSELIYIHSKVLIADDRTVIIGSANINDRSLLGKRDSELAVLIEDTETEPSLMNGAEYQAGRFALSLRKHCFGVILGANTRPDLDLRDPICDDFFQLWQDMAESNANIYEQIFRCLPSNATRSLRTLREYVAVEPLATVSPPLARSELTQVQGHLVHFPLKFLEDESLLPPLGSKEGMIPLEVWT

[6] = biological target: Phospholipase D1 (Homo sapiens, UniProt Q13393); experiment: PLD1 inhibitor potency in cells, dose response (AID 602151); type: functional;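 also: cellular PLD1 assay in Calu-1 cells stimulated with PMA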
Chain of Phospholipase D1 (Q13393 whole entry): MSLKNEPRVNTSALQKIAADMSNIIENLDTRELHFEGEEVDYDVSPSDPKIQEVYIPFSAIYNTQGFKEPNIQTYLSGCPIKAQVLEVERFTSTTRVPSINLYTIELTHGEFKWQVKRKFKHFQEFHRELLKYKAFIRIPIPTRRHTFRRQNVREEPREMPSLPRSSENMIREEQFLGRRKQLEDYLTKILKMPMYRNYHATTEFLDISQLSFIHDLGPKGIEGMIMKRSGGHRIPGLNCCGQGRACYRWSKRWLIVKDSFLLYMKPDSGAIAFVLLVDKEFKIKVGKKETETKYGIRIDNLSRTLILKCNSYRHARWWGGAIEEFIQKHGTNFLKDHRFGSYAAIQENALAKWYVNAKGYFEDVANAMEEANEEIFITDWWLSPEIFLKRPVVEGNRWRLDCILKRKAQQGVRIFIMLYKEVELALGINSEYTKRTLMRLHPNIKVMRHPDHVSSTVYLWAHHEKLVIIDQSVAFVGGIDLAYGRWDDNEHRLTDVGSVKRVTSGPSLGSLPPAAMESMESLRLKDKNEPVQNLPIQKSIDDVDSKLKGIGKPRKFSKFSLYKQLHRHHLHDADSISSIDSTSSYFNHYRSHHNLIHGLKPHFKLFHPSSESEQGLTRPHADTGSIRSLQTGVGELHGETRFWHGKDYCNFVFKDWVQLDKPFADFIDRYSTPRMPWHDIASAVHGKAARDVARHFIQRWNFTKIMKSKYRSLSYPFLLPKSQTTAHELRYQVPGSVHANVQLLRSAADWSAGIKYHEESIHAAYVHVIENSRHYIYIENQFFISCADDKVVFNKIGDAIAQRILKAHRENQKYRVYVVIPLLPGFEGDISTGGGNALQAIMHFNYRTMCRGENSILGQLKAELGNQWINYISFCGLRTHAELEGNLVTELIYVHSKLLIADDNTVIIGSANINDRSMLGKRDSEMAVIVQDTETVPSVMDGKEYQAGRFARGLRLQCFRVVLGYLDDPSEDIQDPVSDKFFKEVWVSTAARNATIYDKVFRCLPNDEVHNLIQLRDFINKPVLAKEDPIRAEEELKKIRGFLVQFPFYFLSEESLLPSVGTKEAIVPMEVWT

[7] = system: Candida albicans; experiment: growth inhibition of azole-resistant C. albicans, dose response, CaCi-8 strain, Alamar Blue, dry powder, set 3 (AID 488905); type: functional, organism-based
[8] = system: Candida albicans; experiment: reversal of fluconazole resistance in C. albicans, dose response, CaCi-2 strain, Alamar Blue, dry powder, set 3 (AID 488907); type: functional, organism-based

Chain of Glycogen synthase kinase-3 alpha (P49840 whole entry): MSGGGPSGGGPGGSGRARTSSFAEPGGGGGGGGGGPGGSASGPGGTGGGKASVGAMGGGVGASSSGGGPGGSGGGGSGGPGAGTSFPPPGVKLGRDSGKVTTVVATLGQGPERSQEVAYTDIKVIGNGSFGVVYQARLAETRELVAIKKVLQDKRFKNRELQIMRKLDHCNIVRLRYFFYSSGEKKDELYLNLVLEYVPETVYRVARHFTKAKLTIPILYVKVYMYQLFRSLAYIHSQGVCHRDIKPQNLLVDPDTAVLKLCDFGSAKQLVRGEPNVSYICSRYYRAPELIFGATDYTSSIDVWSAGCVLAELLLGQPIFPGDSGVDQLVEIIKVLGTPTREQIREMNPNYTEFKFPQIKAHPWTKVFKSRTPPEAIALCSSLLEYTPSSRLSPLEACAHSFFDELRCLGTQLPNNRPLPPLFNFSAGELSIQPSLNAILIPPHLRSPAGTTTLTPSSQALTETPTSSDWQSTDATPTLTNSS

AC50 [1]: 1480 nM (active)
AC50 [2]: 228 nM (active)
AC50 [3]: 32700 nM (active)
AC50 [4]: 1400 nM (active)
Compound: COc1ccc2nc3c(cc2c1)c(NC(=O)CC(C)C)nn3CC(C)C

Compound: O=C(NCCN1CCN(c2ccncc2)CC1)c1cc2cc(F)ccc2[nH]1
IC50 [5]: 15000 nM (active)
IC50 [6]: 3600 nM (active)

Compound: CCCCC(=O)N1CCN(c2ccccn2)CC1
AC50 [7]: 283 nM (active)
AC50 [8]: 730 nM (active)
